{
  "source": "patent US9233095B2",
  "about": "“Small molecule RNase inhibitors and methods of use” (University of Rochester, priority 2011, dated 2016)",
  "key": {"S. pneumoniae (MDR)": {"system": "S. pneumoniae (MDR)", "test": "CLSI broth microdilution MIC", "type": "cell-based", "details": "Streptococcus pneumoniae", "excerpt": "(§1) In some examples, compounds can be further assayed using the Mueller Hinton (MH) broth antibacterial assay as specified by the Clinical and Laboratory Standards Institute MIC broth microdilution protocol (see Methods for Dilution Antimicrobial Susceptibility Tests for Bacteria That Grow Aerobically; Approved Standard, In The Clinical and Laboratory Standards Institute (CLSI, formerly NCCLS), 7th ed., January 2006, 26 (2), M7-A7; see also Performance Standards for Antimicrobial Susceptibility Testing; Eighteenth Informational Supplement, In The Clinical and Laboratory Standards Institute (CLSI, formerly NCCLS), January 2008, 28 (1), M100-S18).\n(§2) With the exception of RN4220-derivatives, in vitro activities of RNPA1000 against bacteria were determined by the broth microdilution method according to the Clinical and Laboratory Standards Institute (CLSI) guidelines using cation adjusted Mueller-Hinton broth or MH broth supplemented with 5% lysed horse blood (for testing Streptotococcus spp.). Microtiter plates containing serial dilutions of RNPA1000 (0, 4, 8, 16, 32, 64, and 128 μg/ml) were inoculated with 10^5 colony forming units (CFU)/ml and incubated for 18 hr at 37° C. […] The MIC value for each S. aureus strain was determined to be the median score of replicate measurements (n=5). Wells containing concentrations of RNPA1000≧MIC were plated for minimal bactericidal measurement. Where possible, experiments with VRSA strains were performed in a laminar flow hood to minimize potential for equipment contamination. For RN4220 cells containing plasmid vector (pCN51), RnpA overproducing plasmid (pRNPA-S) or RnpA underproducing plasmid (pRNPA-A.S.) in vitro antimicrobial activity of RNPA1000 was performed by the microdilution method as described above, except that cells were grown in Tryptic Soy Broth medium supplemented with 2.5 μM CdCl2 and 0, 1, 2, 4, 8, 16, 32, 64, or 128 μg/ml RNPA1000. Time-kill assays were also performed to monitor the antimicrobial properties of RNPA1000 for S. aureus strain UAMS-1 in the absence and presence of 0.25, 0.5, 2, and 4 times the strain's MIC for oxacillin (1 μg/ml), rifampicin (0.5 μg/ml), vancomycin (2 μg/ml), or daptomycin (1 μg/ml). The indicated amount of RNPA1000 and/or commercial antibiotic were added to mid-exponential phase (2×10^8 cfu/ml) S. aureus strain UAMS-1 cells and incubated at 37° C. Aliquots were removed at 0, 2, 4, 8, and 24 hr post-antimicrobial challenge, serial diluted, and plated to enumerate resulting cfu/ml. All time-kill assays were repeated at least 3 times."}, "S. bovis": {"system": "S. bovis", "test": "CLSI broth microdilution MIC", "type": "cell-based", "details": "Salmonella enterica; S. bovis ATCC49147", "excerpt": "as §1, §2"}, "E. faecalis": {"system": "E. faecalis", "test": "CLSI broth microdilution MIC", "type": "cell-based, Enterococcus faecalis", "excerpt": "as §1, §2"}, "A. baumannii": {"system": "A. baumannii", "test": "CLSI broth microdilution MIC", "type": "cell-based, Acinetobacter baumannii", "excerpt": "as §1, §2"}, "[1]": {"system": "biofilm-associated S. aureus strain UAMS-1", "test": "in vitro catheter biofilm assay", "type": "cell-based", "procedure": "To determine this, in vitro biofilm assays were performed as described in Weiss et al., Antimicrob Agents Chemother, 53: 2475-2482 (2009). Briefly, 1 cm segments of 14-gauge fluorinated ethylene propylene Introcan Safety Catheters (B. Braun, Bethlehem, Pa.) were coated with human plasma and placed in individual wells of a 12-well microtiter plate containing 2 ml biofilm medium and S. aureus strain UAMS-1 at a final OD600 nm of 0.05. Following overnight incubation at 37° C. catheters were removed, rinsed in phosphate buffered saline (PBS), and transferred to fresh biofilm medium containing 0, 5, 10, or 20 times the S. aureus MIC for RNPA1000. Catheters exposed to each dose (n=3) were recovered daily over a period of 3 days, with the medium being replaced each day. After each recovery time point catheters were rinsed in PBS and adherent bacteria were enumerated by sonication and plating. Analysis of variance (ANOVA) of logarithmically-transformed bacterial count data was used to evaluate the effect of RNPA1000 exposure."}},
  "note": "Read-outs that look alike come from different tables or passages of the source.",
  "data": [
    {"compound": "Cc1cc(/C=C(/C#N)C(=O)Nc2cccc(Br)c2)c(C)n1-c1ccc(C(=O)O)cc1", "note": "[RNPA1000]", "values": [
      {"measurement": "MIC", "setting": "S. pneumoniae (MDR); S. pneumoniae (MDR) Isolate 1", "result": 32, "unit": "µg/mL"},
      {"measurement": "MIC", "setting": "S. pneumoniae (MDR); S. pneumoniae (MDR) Isolate 2", "result": 32, "unit": "µg/mL"},
      {"measurement": "MIC", "setting": "S. pneumoniae (MDR); S. pneumoniae (MDR) Isolate 3", "result": 16, "unit": "µg/mL"},
      {"measurement": "MIC", "setting": "S. pneumoniae (MDR); S. pneumoniae (MDR) Isolate 4", "result": 32, "unit": "µg/mL"},
      {"measurement": "MIC", "setting": "S. pneumoniae (MDR); S. pneumoniae (MDR) Isolate 5", "result": 16, "unit": "µg/mL"},
      {"measurement": "MIC", "setting": "S. bovis", "result": 32, "unit": "µg/mL"},
      {"measurement": "antimicrobial activity in words", "setting": "E. faecalis", "result": "mild activity"},
      {"measurement": "MIC", "setting": "E. faecalis; E. faecalis Isolate 1", "result": 64, "unit": "µg/mL"},
      {"measurement": "MIC", "setting": "E. faecalis; E. faecalis Isolate 3", "result": 64, "unit": "µg/mL"},
      {"measurement": "MIC", "setting": "E. faecalis; E. faecalis Isolate 4", "result": 64, "unit": "µg/mL"},
      {"measurement": "MIC", "setting": "E. faecalis; E. faecalis Isolate 5", "result": 64, "unit": "µg/mL"},
      {"measurement": "MIC", "setting": "E. faecalis; Enterococcus faecalis, E. faecalis Isolate 2, read-out: MIC", "result": 64, "unit": "µg/mL"},
      {"measurement": "effect of efflux inhibitor reserpine on RNPA1000 susceptibility", "setting": "A. baumannii", "result": "no effect"},
      {"measurement": "effect on growth", "setting": "A. baumannii", "result": "did not affect"},
      {"measurement": "MIC", "setting": "A. baumannii; A. baumannii Isolate 2", "result": ">64", "unit": "µg/mL"},
      {"measurement": "MIC", "setting": "A. baumannii; A. baumannii Isolate 3", "result": ">64", "unit": "µg/mL"},
      {"measurement": "MIC", "setting": "A. baumannii; A. baumannii Isolate 4", "result": ">64", "unit": "µg/mL"},
      {"measurement": "MIC", "setting": "A. baumannii; A. baumannii Isolate 5", "result": ">64", "unit": "µg/mL"},
      {"measurement": "MIC", "setting": "A. baumannii; A. baumannii Isolate 5 + reserpine", "result": ">64", "unit": "µg/mL"},
      {"measurement": "MIC", "setting": "A. baumannii; Acinetobacter baumannii", "result": "> 64", "unit": "µg/mL"},
      {"measurement": "bacterial clearance", "setting": "[1]; 5, 10 or 20× MIC, up to 3 days", "result": "never achieved"},
      {"measurement": "decrease in bacterial burden", "setting": "[1]; 5× MIC for 24 hr", "result": 3, "unit": "log"},
      {"measurement": "maximal reduction in biofilm-associated bacteria", "setting": "[1]; up to 20× MIC, up to 3 days", "result": 5, "unit": "log"}
    ]}
  ]
}
